Experiments:
[1] = Relationship of the crystalline forms: relative thermodynamic stability and critical water activity; format: physicochemical; conditions: ambient conditions; T1F-2 compared with T1F-1
Description: Herein we describe three crystalline forms of the monohydrochloride salt, Compound I, that have been prepared and identified: the monohydrochloride monohydrate H-4 form and two monohydrochloride forms designated as […]-1 and […]-2. […] The critical water activity between the […]-2 and H-4 forms is in the range 0.05-0.24.

[2] = Dehydration of form H-4 to anhydrous form P44 on drying / sensitivity to relative humidity; format: physicochemical
Protocol: Additionally, the ternary solvent mixture THF/water/MeCN can be used. If the resultant H-4 form is dried at a temperature greater than 60° C., then it converts to an anhydrous form of H-4, designated as P44. […] In practice, to minimize conversion to the P44 form, the drying can be conducted under a stream of humidified nitrogen gas.

C=C(C)[C@@H]1CC[C@]2(NCCN3CCS(=O)(=O)CC3)CC[C@]3(C)[C@H](CC[C@@H]4[C@@]5(C)CC=C(c6ccc(C(=O)O)cc6)C(C)(C)[C@@H]5CC[C@]43C)[C@@H]12.Cl [Form T1F-2, 4-((1R,3aS,5aR,5bR, 7aR, 11aS,11bR,13aR,13bR)-3a-((2-(1,1-dioxidothiomorpholino)ethyl)amino)-5a,5b,8,8,11a-pentamethyl-1-(prop-1-en-2-yl)-2,3,3a,4,5,5a,5b,6,7,7a,8, 11,11a,11b, 12,13,13a,13b-octadecahydro-1H-cyclopenta[a]chrysen-9-yl)benzoic acid hydrochloride]
relative thermodynamic stability of the crystalline forms [1]: thermodynamically more stable than T1F-1 form

C=C(C)[C@@H]1CC[C@]2(NCCN3CCS(=O)(=O)CC3)CC[C@]3(C)[C@H](CC[C@@H]4[C@@]5(C)CC=C(c6ccc(C(=O)O)cc6)C(C)(C)[C@@H]5CC[C@]43C)[C@@H]12.Cl [Form H-4, 4-((1R,3aS,5aR,5bR, 7aR, 11aS,11bR,13aR,13bR)-3a-((2-(1,1-dioxidothiomorpholino)ethyl)amino)-5a,5b,8,8,11a-pentamethyl-1-(prop-1-en-2-yl)-2,3,3a,4,5,5a,5b,6,7,7a,8, 11,11a,11b, 12,13,13a,13b-octadecahydro-1H-cyclopenta[a]chrysen-9-yl)benzoic acid hydrochloride hydrate]
sensitivity to relative humidity [2]: sensitive to relative humidity
drying temperature at which H-4 converts to anhydrous form P44 ([2]; drying of the resultant H-4 form): greater than 60 °C
temperature of dehydration to the P44 form ([2]; under a stream of dry nitrogen gas): ≥ 30 °C

Reference: US20180094019A1, “CRYSTALLINE FORMS OF MODIFIED TRITERPENOID HYDROCHLORIDE SALTS WITH HIV MATURATION INHIBITOR ACTIVITY” (VIIV HEALTHCARE UK (NO.4) LIMITED, priority 2015, published 2018)
